From ChEMBL document CHEMBL1126970, “Development of 1,4-benzodiazepine cholecystokinin type B antagonists” (J Med Chem, 1993)

Columns and labels:
[1] = organism: Cavia porcellus; test: Selectivity ratio between CCK-B and CCK-A receptor; set-up: reference not given here
[2] = biological target: T1, Cholecystokinin receptor type A (Rattus norvegicus, UniProt P30551); test: Inhibition of binding of [125I]CCK-8 to cholecystokinin type A receptor in rat pancreatic tissue
T1 sequence (P30551 whole entry): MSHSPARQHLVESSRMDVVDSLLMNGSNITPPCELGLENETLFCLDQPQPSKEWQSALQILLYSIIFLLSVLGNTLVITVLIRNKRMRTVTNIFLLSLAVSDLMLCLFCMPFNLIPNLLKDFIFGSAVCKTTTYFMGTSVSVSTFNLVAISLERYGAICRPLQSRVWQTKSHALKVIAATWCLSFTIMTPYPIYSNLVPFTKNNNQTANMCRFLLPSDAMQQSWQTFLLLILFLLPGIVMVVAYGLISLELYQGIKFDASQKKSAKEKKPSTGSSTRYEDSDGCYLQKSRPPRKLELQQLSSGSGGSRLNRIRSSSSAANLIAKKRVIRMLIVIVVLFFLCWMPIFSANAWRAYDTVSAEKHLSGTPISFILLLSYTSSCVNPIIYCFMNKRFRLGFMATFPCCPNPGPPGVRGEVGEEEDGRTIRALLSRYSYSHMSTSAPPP

`CCOC(=O)CCN1C(=O)C(NC(=O)Nc2ccc(Cl)cc2)N=C(c2ccccc2)c2ccccc21` (racemic) showed a Selectivity ratio [1] of 204.
With `CN1C(=O)C(NC(=O)NCc2ccccc2)N=C(c2ccccc2)c2ccccc21` (racemic) the Selectivity ratio [1] was 0.6.
`COc1cccc(NC(=O)NC2N=C(c3ccccc3)c3ccccc3N(CC(=O)N3CCCC3)C2=O)c1` (racemic) gave an IC50 [2] of 170 nM and a Selectivity ratio [1] of 708.
For `O=C(Nc1ccc(Cl)cc1)NC1N=C(c2ccccc2)c2ccccc2N(Cc2nnn[nH]2)C1=O` (racemic), the IC50 [2] was 2100 nM.
Work on `Cc1cccc(NC(=O)NC2N=C(c3ccccc3)c3ccccc3N(CC(=O)ON3CCC[C@@H]3C(=O)O)C2=O)c1` (mixture of isomers) yielded an IC50 [2] of 20000 nM and a Selectivity ratio [1] of 15.
Compound `CN1C(=O)C(NC(=O)Nc2ccncc2)N=C(c2ccccc2)c2ccccc21` (racemic) has an IC50 [2] of 1510 nM and a Selectivity ratio [1] of 1.4.
In the case of `CN1C(=O)[C@@H](NC(=O)Nc2ccccc2Cl)N=C(c2ccccc2)c2ccccc21`, the IC50 [2] is reported as 0.26 nM and the Selectivity ratio [1] is reported as less than 0.01.
Work on `CN1C(=O)C(NC(=O)NC(C)(C)C)N=C(c2ccccc2)c2ccccc21` (racemic) yielded a Selectivity ratio [1] of 0.2.
`CN1C(=O)[C@@H](NC(=O)Nc2ccc(Cl)cc2)N=C(c2ccccc2)c2ccccc21` showed an IC50 [2] of 110 nM and a Selectivity ratio [1] of 0.1.
In the case of `CN1C(=O)C(NC(=O)Nc2ccc(Cl)c(Cl)c2)N=C(c2ccccc2)c2ccccc21` (racemic), the Selectivity ratio [1] is reported as 0.4.
In the case of `CN1C(=O)[C@H](NC(=O)NCc2cccc(O)c2)N=C(c2ccccc2)c2ccccc21`, the IC50 [2] is reported as 21 nM and the Selectivity ratio [1] is reported as 1.
In the case of `CN1C(=O)C(NC(=O)Nc2ccc3c(c2)CCC3)N=C(c2ccccc2)c2ccccc21` (stereo not drawn), the IC50 [2] is reported as 900 nM and the Selectivity ratio [1] is reported as 333.
Compound `COc1cccc(NC(=O)NC2N=C(c3ccccc3)c3ccccc3N(CCN(C)C)C2=O)c1` (racemic) has an IC50 [2] of 3090 nM and a Selectivity ratio [1] of 16.
With `Cc1cccc(NC(=O)NC2N=C(c3ccccc3)c3ccncc3N(C)C2=O)c1` (racemic) the IC50 [2] was 144 nM and the Selectivity ratio [1] was less than 0.01.
With `COc1cc(NC(=O)NC2N=C(c3ccccc3)c3ccccc3N(C)C2=O)cc(OC)c1` (racemic) the Selectivity ratio [1] was 0.1.
For `COc1cccc(NC(=O)NC2N=C(c3ccccc3)c3ccccc3N(C)C2=O)c1` (racemic), the Selectivity ratio [1] was 2.
`O=C(O)CN1C(=O)C(NC(=O)Nc2ccc(Cl)cc2)N=C(c2ccccc2)c2ccccc21` (racemic) was tested, and the Selectivity ratio [1] was 0.77.
`CCOC(=O)CN1C(=O)C(NC(=O)c2ccccc2Cl)N=C(c2ccccc2F)c2ccccc21` (racemic) showed a Selectivity ratio [1] greater than 9.
With `COC(=O)c1cccc(NC(=O)N[C@@H]2N=C(c3ccccc3)c3ccccc3N(C)C2=O)c1` the IC50 [2] was 1200 nM and the Selectivity ratio [1] was 150.
`CN1C(=O)[C@H](NC(=O)Nc2cccc(I)c2)N=C(c2ccccc2)c2ccccc21` gave an IC50 [2] of 800 nM and a Selectivity ratio [1] of 116.
In the case of `CN1C(=O)[C@H](NC(=O)Nc2cccc(O)c2)N=C(c2ccccc2)c2ccccc21`, the IC50 [2] is reported as 60 nM and the Selectivity ratio [1] is reported as 1.
Work on `O=C(CN1C(=O)C(NC(=O)Nc2ccc(Cl)cc2)N=C(c2ccccc2)c2ccccc21)NCc1ccccc1` (racemic) yielded a Selectivity ratio [1] of 24.
For `COc1cccc(NC(=O)NC2N=C(c3ccccc3)c3ccccc3N(CC(=O)N3CCN(C)CC3)C2=O)c1` (racemic), the IC50 [2] was 1400 nM and the Selectivity ratio [1] was 318.
`CN1C(=O)[C@@H](NC(=O)c2ccc(C(F)(F)F)cc2)N=C(c2ccccc2)c2ccccc21` was tested, and the IC50 [2] was 1300 nM and the Selectivity ratio [1] was 0.3.
With `COc1ccccc1NC(=O)NC1N=C(c2ccccc2)c2ccccc2N(C)C1=O` (racemic) the Selectivity ratio [1] was 0.5.
In the case of `CN1C(=O)C(NC(=O)Nc2ccc(Br)cc2)N=C(c2ccccc2)c2ccccc21` (racemic), the Selectivity ratio [1] is reported as 2.7.
With `CN1C(=O)C(NC(=O)Nc2ccc3ncccc3c2)N=C(c2ccccc2)c2ccccc21` (racemic) the IC50 [2] was 310 nM and the Selectivity ratio [1] was 6.
Compound `Cc1cccc(NC(=O)NC2N=C(c3ccccn3)c3ccccc3N(C)C2=O)c1` (stereo not drawn) has an IC50 [2] of 65 nM and a Selectivity ratio [1] of 1.
`Cc1ccc(NC(=O)NC2N=C(c3ccccc3)c3ccccc3N(C)C2=O)cc1C` (stereo not drawn) was tested, and the IC50 [2] was 310 nM and the Selectivity ratio [1] was 14.
Compound `CCNC(=O)CN1C(=O)C(NC(=O)Nc2ccc(Cl)cc2)N=C(c2ccccc2)c2ccccc21` (racemic) has a Selectivity ratio [1] of 191.
For `CC(=O)c1cccc(NC(=O)NC2N=C(c3ccccc3)c3ccccc3N(C)C2=O)c1` (stereo not drawn), the IC50 [2] was 1300 nM and the Selectivity ratio [1] was 361.
For `CN1C(=O)C(NC(=O)Nc2cccc(CNC(=O)OC(C)(C)C)c2)N=C(c2ccccc2)c2ccccc21` (stereo not drawn), the IC50 [2] was 200 nM and the Selectivity ratio [1] was 1.
Work on `O=C(Nc1ccc(Cl)cc1)NC1N=C(c2ccccc2)c2ccccc2N(Cc2nn[nH]n2)C1=O` (racemic) yielded a Selectivity ratio [1] of 4.
`CCN(CC)C(=O)CN1C(=O)C(NC(=O)Nc2ccc(Cl)cc2)N=C(c2ccccc2)c2ccccc21` (racemic) was tested, and the Selectivity ratio [1] was 667.
For `CCN(CC)CC(=O)OCCN1C(=O)C(NC(=O)Nc2cccc(C)c2)N=C(c2ccccc2)c2ccccc21` (racemic), the IC50 [2] was 190 nM and the Selectivity ratio [1] was 34.
Compound `Cc1cccc(NC(=O)NC2N=C(c3ccccc3)c3ccccc3N(CC(=O)N3CC[N+](C)(C)CC3)C2=O)c1` (racemic) has an IC50 [2] of 6200 nM and a Selectivity ratio [1] of 107.
In the case of `Cc1cccc(NC(=O)NC2N=C(c3ccncc3)c3ccccc3N(C)C2=O)c1` (racemic), the IC50 [2] is reported as 390 nM and the Selectivity ratio [1] is reported as 7.5.
With `Cc1cccc(NC(=O)N[C@@H]2N=C(c3ccccc3)c3ccccc3NC2=O)c1` the IC50 [2] was 3800 nM and the Selectivity ratio [1] was 95.
Work on `CCOC(=O)CN1C(=O)C(NC(=O)Nc2ccc(Cl)cc2)N=C(c2ccccc2)c2ccccc21` (racemic) yielded a Selectivity ratio [1] of 370.
`Cc1cccc(NC(=O)N[C@H]2N=C(c3ccccc3)c3ccccc3N(C)C2=O)c1` gave an IC50 [2] of 4.7 nM.
In the case of `O=C(Nc1ccc(Cl)cc1)NC1N=C(c2ccccc2)c2ccccc2N(CC(=O)OCc2ccccc2)C1=O` (racemic), the Selectivity ratio [1] is reported as 30.
In the case of `CC(=O)Oc1cccc(NC(=O)N[C@@H]2N=C(c3ccccc3)c3ccccc3N(C)C2=O)c1`, the IC50 [2] is reported as 6600 nM and the Selectivity ratio [1] is reported as 13.
Work on `CN1C(=O)C(NC(=O)Nc2ccccc2[N+](=O)[O-])N=C(c2ccccc2)c2ccccc21` (racemic) yielded a Selectivity ratio [1] of less than 0.01.
`CN1C(=O)C(NC(=O)Nc2ccc(N)nc2)N=C(c2ccccc2)c2ccccc21` (stereo not drawn) showed an IC50 [2] of 3000 nM and a Selectivity ratio [1] of 6.
For `COc1cccc(NC(=O)NC2N=C(c3ccccc3)c3ccccc3N(CC[N+](C)(C)C)C2=O)c1` (racemic), the IC50 [2] was 17000 nM and the Selectivity ratio [1] was 15.
`CN1C(=O)C(NC(=O)Nc2cccc([N+](=O)[O-])c2)N=C(c2ccccc2)c2ccccc21` (racemic) was tested, and the Selectivity ratio [1] was 3.
`CN1C(=O)C(NC(=O)Nc2cccnc2)N=C(c2ccccc2)c2ccccc21` (racemic) was tested, and the IC50 [2] was 120 nM and the Selectivity ratio [1] was 0.4.
`CN1C(=O)C(NC(N)=O)N=C(c2ccccc2)c2ccccc21` (racemic) showed an IC50 [2] of 55000 nM and a Selectivity ratio [1] greater than 0.5.
`O=C(Nc1ccc(Cl)cc1)N[C@H]1N=C(c2ccccc2)c2ccccc2N(CC(=O)N2CCCC2)C1=O` gave an IC50 [2] of 2500 nM and a Selectivity ratio [1] of 192.
In the case of `Cc1cc(C)cc(NC(=O)NC2N=C(c3ccccc3)c3ccccc3N(C)C2=O)c1` (stereo not drawn), the IC50 [2] is reported as 720 nM and the Selectivity ratio [1] is reported as 2.7.
Compound `CN1C(=O)C(NC(=O)Nc2cccc(F)c2)N=C(c2ccccc2)c2ccccc21` (racemic) has a Selectivity ratio [1] of 0.2.
`Cc1cccc(NC(=O)NC2N=C(c3ccccc3)c3ccccc3N(Cc3n[nH]c(C)n3)C2=O)c1` (racemic) was tested, and the IC50 [2] was 566 nM and the Selectivity ratio [1] was 58.
`CN1C(=O)C(NC(=O)Nc2cccc3ccccc23)N=C(c2ccccc2)c2ccccc21` (racemic) was tested, and the IC50 [2] was 68 nM and the Selectivity ratio [1] was 0.9.
For `Cc1cccc(NC(=O)NC2N=C(c3ccccc3)c3ccccc3N(Cc3ncc[nH]3)C2=O)c1` (racemic), the Selectivity ratio [1] was 4.
`COc1cccc(NC(=O)N[C@@H]2N=C(c3ccccc3)c3ccccc3N(C)C2=O)c1` showed a Selectivity ratio [1] of 272.
Compound `CN1C(=O)C(NC(=O)Nc2ccc(C(F)(F)F)cc2)N=C(c2ccccc2)c2ccccc21` (stereo not drawn) has an IC50 [2] of 1300 nM and a Selectivity ratio [1] of 228.
Compound `CN1C(=O)C(NC(=O)NC2CCCCC2)N=C(c2ccccc2)c2ccccc21` (racemic) has a Selectivity ratio [1] of 0.8.
`CN1C(=O)[C@H](NC(=O)Nc2cccc(Br)c2)N=C(c2ccccc2)c2ccccc21` showed a Selectivity ratio [1] of 221.
`CN1CCN(C(=O)CN2C(=O)C(NC(=O)Nc3ccc(Cl)cc3)N=C(c3ccccc3)c3ccccc32)CC1` (racemic) gave a Selectivity ratio [1] of 1500.
Compound `CN1C(=O)[C@H](NC(=O)c2ccc(C(F)(F)F)cc2)N=C(c2ccccc2)c2ccccc21` has a Selectivity ratio [1] of 35.
Compound `COc1cccc(NC(=O)N[C@H]2N=C(c3ccccc3)c3ccccc3N(C)C2=O)c1` has a Selectivity ratio [1] of less than 0.01.
For `CN1C(=O)C(NC(=O)Nc2ccc(Cl)cc2Cl)N=C(c2ccccc2)c2ccccc21` (racemic), the Selectivity ratio [1] was 0.01.
`CN1C(=O)[C@H](NC(=O)Nc2cccc(Cl)c2)N=C(c2ccccc2)c2ccccc21` gave a Selectivity ratio [1] of 39.
`CN1C(=O)C(NC(=O)Nc2ccc(F)cc2)N=C(c2ccccc2)c2ccccc21` (stereo not drawn) was tested, and the Selectivity ratio [1] was 0.7.
In the case of `CN1C(=O)C(NC(=O)Nc2ccccc2)N=C(c2ccccc2)c2ccccc21` (racemic), the Selectivity ratio [1] is reported as 0.26.
For `CN1C(=O)C(NC(=O)Nc2ccc(C(=O)O)cc2)N=C(c2ccccc2)c2ccccc21` (racemic), the IC50 [2] was greater than 10000 nM.
`CN1C(=O)C(NC(=O)Nc2cccc(Br)c2)N=C(c2ccccc2)c2ccccc21` (racemic) showed a Selectivity ratio [1] of 1.
With `CN1C(=O)C(NC(=O)Nc2ccc([N+](=O)[O-])cc2)N=C(c2ccccc2)c2ccccc21` (racemic) the Selectivity ratio [1] was 4.5.
With `CN1C(=O)C(NC(=O)Nc2cccc(Cl)c2)N=C(c2ccccc2)c2ccccc21` (racemic) the Selectivity ratio [1] was 1.
Work on `Cc1cccc(NC(=O)NC2N=C(c3ccccc3)c3ccccc3N(Cc3c[nH]cn3)C2=O)c1` (racemic) yielded a Selectivity ratio [1] of 1.
